In ChEMBL document CHEMBL1151627, “Antineoplastic agents, 99. Amaryllis belladonna” (1984):
Converted amounts (≈) assume the structure as drawn. The source made the active and inactive calls. The calls are words filed in the database; no cut-off is given here.

What was measured:
P388 [1] = assay: In vivo antitumor activity against mouse P388 cells at 5 to 200 mg/kg; assay type: functional, organism-based
P388 [2] = assay: Cytotoxicity against mouse P388 cells; assay type: functional; details: read-out: ED50 (the source's name)
P388 [3] = assay: In vivo antitumor activity against mouse P388 cells at 1.25 to 10 mg/kg; assay type: functional, organism-based
P388 [4] = assay: In vivo antitumor activity against mouse P388 cells at 20 mg/kg; assay type: functional
P388 [5] = assay: In vivo antitumor activity against mouse P388 cells at 10 mg/kg; assay type: functional
P388 [6] = assay: In vivo antitumor activity against mouse P388 cells at 75 mg/kg; assay type: functional

## CC(=O)O[C@@H]1CC=C2CCN3Cc4cc5c(cc4[C@H]1[C@@H]23)OCO5 [ACETYLCARANINE]
P388 [1]
  Activity: inactive
P388 [2]
  EC50: 0.23 µg/mL (≈ 0.734 µM)

## COc1c2c(cc3c1OCO3)[C@]13C=C[C@H](OC)C[C@H]1N(C2)C[C@@H]3O [AMBELLINE]
P388 [3]
  Activity: inactive
P388 [2]
  EC50: 1.6 µg/mL (≈ 4.83 µM)

## [Cl-].c1cc2c3c(c1)c1cc4c(cc1c[n+]3CC2)OCO4 [ANHYDROLYCORINIUM CHLORIDE]
P388 [4]
  T/C: 169%
P388 [5]
  T/C: 164%

## O[C@H]1[C@H]2c3cc4c(cc3CN3CCC(=C[C@@H]1O)[C@H]23)OCO4 [LYCORINE]
P388 [6]
  T/C: 135%
